pEC50, pIC50: −log10 of the molar value.
What was measured:
[1] = system: rat spared nerve injury (SNI) model; assay: Spared nerve injury (SNI) model, von Frey mechanical allodynia; type: in vivo
Protocol: To evaluate the function the “E559 polymorph” in neuropathic pain, mechanical allodynia test was evaluated by von Frey filament in rat spared nerve injury (SNI) model before and after before and after treatment with the “E559 polymorph”. The SNI model and von Frey filament testing were conducted as previously described (Decosterd & Woolf. Pain, 2000, v87, p149-158). Briefly, Animals with a pain threshold of <15 g, assessed using the Von Frey mechanical allodynia testing, were randomly placed in experimental groups. Each rat group consisted of 10 male rats. On day 7 post-surgery treatment was initiated. […]
The pain response (Von Frey testing) was evaluated on day 0 pre-surgery (labelled as Baseline in FIG. 27), on day 6 post-surgery (labelled as Day 6 Pre grouping in FIG. 27), and at 2, 4, 6, and 24 hours after a single oral dose of either vehicle, or the “E559 polymorph” at 0.3, 1, 3, or 10 mg/kg (labelled as BETR-001 in FIG. 27), or gabapentin at 150 mg/kg. […]
Rat groups were treated (via oral administration) with either vehicle, or the “E559 polymorph” at 20 mg/kg (labelled as BETR-001 in FIG. 28), or gabapentin at 150 mg/kg. […] The pain response (Von Frey testing) was evaluated on day 0 pre-surgery (labelled as Baseline in FIG. 28), on day 6 post-surgery (labelled as Day 6 Pre grouping in FIG. 28), and at 2 hours post-treatment given on days 7, 11, and 15 post-surgery. […]

[2] = target: T1, Serotonin 1B receptor (5-HT1BR) (Homo sapiens, UniProt P28222); assay: Functional assay in HEK-293 cells (cAMP); type: cell-based
T1 construct: expressed in transfected cells; host or cells: HEK-293
T1 sequence (P28222 whole entry): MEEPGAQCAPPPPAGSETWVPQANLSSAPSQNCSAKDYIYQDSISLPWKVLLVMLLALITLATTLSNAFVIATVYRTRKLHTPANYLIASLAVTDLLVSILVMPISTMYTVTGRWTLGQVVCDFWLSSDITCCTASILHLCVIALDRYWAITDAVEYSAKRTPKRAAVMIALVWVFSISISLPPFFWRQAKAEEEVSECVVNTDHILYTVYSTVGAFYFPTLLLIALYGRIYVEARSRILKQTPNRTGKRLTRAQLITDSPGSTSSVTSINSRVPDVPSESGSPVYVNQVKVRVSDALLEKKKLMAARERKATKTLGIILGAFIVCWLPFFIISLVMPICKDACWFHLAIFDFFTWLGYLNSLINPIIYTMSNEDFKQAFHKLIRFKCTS
Protocol: Neuro-receptor binding and functional effects of the “E559 polymorph” was examined by analyzing binding affinity [Ki (nM)], functional agonist activity [EC50 (nM)], and functional antagonist activity [IC50 (nM)] against a panel of key receptors in neurophysiological disorders. Binding and functional assays were performed at “E559 polymorph” concentrations of 0.0003, 0.003, 0.01, 0.03, 0.1, 0.3, 1, and 10 μM. In binding assays, cell membrane homogenates, expressing each receptor target, were incubated with the corresponding radio-ligand in absence or presence of several concentration of the “E559 polymorph” compound. The measurement of binding affinity of the “E559 polymorph” is represented in TABLE XIII by Ki (nM) which was calculated as percent inhibition of the binding of a radioactively labeled reference ligand at each receptor. In functional assays the HEK-293 cells expressing each receptor target were suspended in buffer and distribute in microplates and incubated for 30 minutes at room temperature or 37° C. in the presence of buffer alone (basal control), the reference agonist or antagonist, or the “E559 polymorph. Following incubation, the cells were lysed and the appropriate fluorescent probe (Ca2+ flux, cAMP, or IP1) were added for 60 minutes to measure the fluorescence transfer at the appropriate wavelength using a microplate reader. The cellular agonist effect (EC50) was calculated as a percent of control response to a known reference agonist and the cellular antagonist effect (IC50) was calculated as a percent inhibition of control reference agonist response for each receptor.
The functional agonist activity [EC50 (nM), Emax], and functional antagonist activity [IC50 (nM)] of the 5R:8S stereoisomer of the “E559 polymorph” (5R:8S E558) was compared with the “E559 polymorph” (a 5R:8R stereoisomer) at selected serotonin receptors. The assays were performed as described in Example 6.

[3] = target: ADRb2 (β2 adrenergic receptor) (Homo sapiens, UniProt P07550); assay: BRET-based G protein dissociation assay; type: cell-based
Sequence of ADRb2 (β2 adrenergic receptor) (P07550 whole entry): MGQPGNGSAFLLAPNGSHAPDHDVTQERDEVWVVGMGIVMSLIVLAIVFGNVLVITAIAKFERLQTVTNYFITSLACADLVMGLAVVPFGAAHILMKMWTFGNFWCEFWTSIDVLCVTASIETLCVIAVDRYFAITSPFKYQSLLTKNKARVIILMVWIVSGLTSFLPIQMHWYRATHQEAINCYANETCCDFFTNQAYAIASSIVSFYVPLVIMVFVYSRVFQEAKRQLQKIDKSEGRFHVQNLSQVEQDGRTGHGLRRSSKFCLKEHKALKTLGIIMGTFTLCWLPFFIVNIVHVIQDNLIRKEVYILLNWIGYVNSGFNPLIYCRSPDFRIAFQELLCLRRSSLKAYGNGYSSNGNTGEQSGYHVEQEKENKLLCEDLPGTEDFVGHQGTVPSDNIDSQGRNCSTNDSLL

[4] = target: ADRa2A (α2A adrenergic receptor) (Homo sapiens, UniProt P08913); assay: BRET-based G protein dissociation assay; type: cell-based
Sequence of ADRa2A (α2A adrenergic receptor) (P08913 whole entry): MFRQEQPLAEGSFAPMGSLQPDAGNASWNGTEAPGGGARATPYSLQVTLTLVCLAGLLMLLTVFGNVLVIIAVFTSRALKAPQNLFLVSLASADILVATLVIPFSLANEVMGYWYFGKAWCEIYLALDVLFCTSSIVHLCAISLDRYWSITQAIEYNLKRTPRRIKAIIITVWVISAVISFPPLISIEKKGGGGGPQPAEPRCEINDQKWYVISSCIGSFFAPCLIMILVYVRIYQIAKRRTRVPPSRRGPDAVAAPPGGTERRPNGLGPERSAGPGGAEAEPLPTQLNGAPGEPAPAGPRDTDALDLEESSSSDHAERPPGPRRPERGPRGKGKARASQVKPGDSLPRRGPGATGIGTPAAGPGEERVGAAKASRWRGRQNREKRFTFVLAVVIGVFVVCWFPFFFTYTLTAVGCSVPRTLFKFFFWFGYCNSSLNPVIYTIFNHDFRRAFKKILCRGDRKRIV

mice = assay: Tolerance after repeated dosing, HTR to DOI challenge; type: in vivo, mouse; conditions: IP once daily 7 days: DOI 10 mg/kg/day, E559 polymorph 3 mg/kg/day; DOI 1 mg/kg challenge 24 hours later
Protocol: To determine if repeated dosing of the “E559 polymorph” can induce tolerance in vivo, HTR experiment described in Examples 2 and 5 was repeated where mice received IP injections of vehicle, DOI (10 mg/kg/day), or the “E559 polymorph” (3 mg/kg/day; once daily for 7 consecutive days) and were then challenged with DOI (1 mg/kg) 24 hours later. Data shown in FIG. 22 are group means±standard deviation for the entire 60 minutes test session. Asterisks indicate statistical significances compared to the Vehicle control (Vehicle was saline).

[5] = target: H1 histaminergic receptor (Homo sapiens, UniProt P35367); assay: BRET-based G protein dissociation assay; type: cell-based
Sequence of H1 histaminergic receptor (P35367 whole entry): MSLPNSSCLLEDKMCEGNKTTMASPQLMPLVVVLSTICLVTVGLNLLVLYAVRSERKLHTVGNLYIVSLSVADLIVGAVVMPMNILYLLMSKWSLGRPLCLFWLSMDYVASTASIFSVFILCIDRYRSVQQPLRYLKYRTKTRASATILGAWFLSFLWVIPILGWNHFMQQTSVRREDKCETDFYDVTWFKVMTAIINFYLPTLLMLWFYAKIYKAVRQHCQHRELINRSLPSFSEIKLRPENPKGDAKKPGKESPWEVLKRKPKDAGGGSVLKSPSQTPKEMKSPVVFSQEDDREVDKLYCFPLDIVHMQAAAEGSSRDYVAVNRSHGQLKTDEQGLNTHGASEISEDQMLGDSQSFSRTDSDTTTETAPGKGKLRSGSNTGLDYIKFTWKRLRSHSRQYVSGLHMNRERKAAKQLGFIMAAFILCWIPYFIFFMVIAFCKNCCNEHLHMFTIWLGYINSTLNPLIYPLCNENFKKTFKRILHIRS

[6] = system: cultured primary rat neurons; assay: Cell viability, Neurite Outgrowth Staining Kit; type: cell-based; conditions: DIV 6, all tested concentrations
Protocol: The ability of the “E559 polymorph” to induce neural plasticity was evaluated in vitro. In vitro dendritogenesis and spinogenesis assays were conducted using primary rat embryonic cortical neurons. Briefly, cultured primary cortical neurons (rat) were treated at day in vitro (DIV) 3 for 3 hours with increasing concentrations (1, 10 and 100 nM, 1 and […]) of the “E559 polymorph” and morphological changes in dendritic arbor complexity (dendritogenesis) were assessed at DIV6 by immunofluorescent staining of fixed neurons with microtubule-associated protein 2 (MAP2, a microtubule marker), F-actin (cytoskeletal marker), and phalloidin (actin filament marker) followed by fluorescent microscopy and Sholl analysis of neurons' images. […] The spine density assessments (spinogenesis) were made on DIV 18. The cell viability assessments were made on DIV 6 by using the Neurite Outgrowth Staining Kit which includes fluorescent probes for dead and live neuronal cells. Ketamine was used as a comparator and positive control. Ketamine is known to induce dendritogenesis and its effects on synaptic plasticity are believed to mediate its antidepressant effects (Aguilar-Valles et al., Nature, 2021, 590, p315-319). Representative images of MAP2 stained rat cortical neurons treated with vehicle (no drug control) or with “E559 polymorph” is shown in FIG. 18A.

[7] = target: H3 histaminergic receptor (Homo sapiens, UniProt Q9Y5N1); assay: BRET-based G protein dissociation assay; type: cell-based; conditions: percentage of the reference ligand-induced maximal response
Sequence of H3 histaminergic receptor (Q9Y5N1 whole entry): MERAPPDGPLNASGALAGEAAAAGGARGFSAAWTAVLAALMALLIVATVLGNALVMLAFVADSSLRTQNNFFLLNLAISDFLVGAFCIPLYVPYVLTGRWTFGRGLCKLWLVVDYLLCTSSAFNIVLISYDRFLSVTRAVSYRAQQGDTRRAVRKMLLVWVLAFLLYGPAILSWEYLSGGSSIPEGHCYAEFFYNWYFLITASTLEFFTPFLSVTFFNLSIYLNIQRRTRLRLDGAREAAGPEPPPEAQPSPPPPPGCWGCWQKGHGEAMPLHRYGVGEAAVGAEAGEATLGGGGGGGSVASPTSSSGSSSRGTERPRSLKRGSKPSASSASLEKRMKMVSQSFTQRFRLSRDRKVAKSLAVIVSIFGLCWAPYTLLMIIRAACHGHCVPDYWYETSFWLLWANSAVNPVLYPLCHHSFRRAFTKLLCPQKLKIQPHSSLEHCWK

SMILES	inhibition of mechanical allodynia, repeated dosing ([1]; oral 20 mg/kg on days 7, 9, 11, 13 and 15 post-surgery)	inhibition of neuropathic pain (von Frey), single dose ([1]; single oral dose 0.3, 1, 3 or 10 mg/kg on day 7 post-surgery, 2 and 4 hours post administration)	pIC50 [2]	EC50 ([2]; Functional (Agonist) EC50 (nM), cAMP) [nM]	EC50 ([2]; Functional Assay (agonist) EC50 (nM), cAMP, ligand 5-HT) [nM]	Emax ([2]; HEK293, cAMP, ligand 5-HT, read-out: Functional Assay (agonist) Emax) [%]	pEC50 [3]	Kb [3] [nM]	pEC50 [4]	Kb [4] [nM]	tolerance (tachyphylaxis) after repeated dosing, HTR count on DOI challenge (mice)	pEC50 [5]	Kb [5] [nM]	viability of cultured primary rat neurons (cytotoxic activity) [6]	Emax [7] [%]
CCN(CC)C(=O)[C@@H]1C=C2c3cccc4[nH]c(Br)c(c34)C[C@H]2N(C)C1 [E559, (5R, 8R)-2-Bromo-9,10-didehydro-N,N-diethyl-6-methylergoline-8-carboxamide hemi-D-tartrate]	enhanced the inhibition effect on mechanism allodynia to levels comparable to the gabapentin positive control	significant dose-dependent inhibition of neuropathic pain	< 5.00	6.69	6.96	100	8.37	17.6	6.55	11.9	no tolerance was observed	6.82	983	no cytotoxic activity was observed at all tested concentrations	
CCN(CC)C(=O)[C@@H]1C=C2c3cccc4[nH]cc(c34)C[C@H]2N(C)C1 [LSD, lysergic acid diethylamide, reference compound]															18.6
